According to patent publication US20240124503A1, “HETEROAROMATIC PHOSPHONIUM SALTS AND THEIR USE TREATING CANCER” (FLORATEK PHARMA S.A., priority 2021, published 2024):

Experiments:
Assay type in all cases: cell-based
U-251 = assay: Cell viability assay, U-251; details: Homo sapiens; brain carcinoma cell line U-251
Description: (§1) Antitumor activity of the compounds and doxorubicin as a positive control was assessed by using the CellTiter-Blue Cell Viability Assay (Promega, #G8082) or CellTiter-Glow® Luminescent Cell Viability assay (Promega #G7572) according to the manufacturer's instructions. The compounds were tested at 5 or 6 concentrations in half-log increments (highest concentration 30 μM or 100 μM) in duplicate or triplicate well conditions.
(§2) Tumor cells were grown at 37° C. in a humidified atmosphere with 5% CO2 in RPMI 1640 or DMEM medium, supplemented with 10% (v/v) fetal calf serum and 50 μg/ml gentamicin for up to 20 passages, and were passaged once or twice weekly. Cells were harvested using TrypLE or PBS buffer containing 1 mM EDTA, and the percentage of viable cells was determined using a CASY Model TI cell counter (OMNI Life Science). Cells were harvested from exponential phase cultures, counted and plated in 96 well flat-bottom microtiter plates at a cell density depending on the cell line's growth rate (4,000-20,000 cells/well depending on the cell line's growth rate, up to 60,000 for hematological cancer cell lines) in RPMI 1640 or DMEM medium supplemented with 10% (v/v) fetal calf serum and 50 μg/ml gentamicin (140 μl/well). […] Viability of cells was quantified by the CellTiter-Blue® cell viability assay (Promega G8081) or CellTiter-Glow® Luminescent Cell Viability assay (Promega #G7572). […]

HCC1806 = assay: Cell viability assay, HCC1806; details: Homo sapiens; breast carcinoma cell line HCC1806
Description: as §1, §2

bile duct PDX = assay: Cell viability, bile duct PDX (panel statement); details: summary of Table 3; read-out: IC50, bile duct PDX growth
Description: PDX-derived cell cultures were obtained from tumors explanted from mice and isolated by mechanical and enzymatic dissociation. […] Cells were harvested and seeded in 96-wells plates at a density of 1.25 to 5×10^3 cells/well for cytotoxicity assays. Cells were incubated 48 h at 37° C. prior to addition of test molecules and vehicle (DMSO, 0.1%) at desired final concentrations. Cell viability was assessed before drugs' addition (To) and 5 days after test molecules addition by measuring ATP cell content using CellTiter-Glo® Luminescent Cell Viability Assay (Promega) according to the manufacturer's instructions. Luciferase activity was measured on a luminometer (PerkinElmer® EnVision™). Each concentration of compounds was tested in triplicate.
Viability was calculated as a percentage of ATP value compared to vehicle treated controls.
For PDX primary cell cultures, the tumour tissue was washed with PBS containing antibiotic-antimycotic and non-tumour tissue and necrotic tumour tissues were separated. The tumour tissue was transferred to a new dish and cut into 1˜2 mm^3 fragments, resuspended in RPMI-1640 medium and centrifuged at 1,200 rpm for 6 min at room temperature. The pelleted material was resuspended with 15 mL of Tumour Cell Digestion Solution and incubated at 37° C. for 1 hour with agitation. […]

lung carcinoma cell = assay: Cell viability, lung carcinoma cells (panel statement); details: summary of Table 13; read-out: IC50, lung carcinoma cell growth
Description: as §1, §2

COc1c(O)ccc2c(=O)c(O)c(-c3ccc(CCCC[P+](c4ccccc4)(c4ccccc4)c4ccccc4)cc3)oc12 [SND190, (4-(4-(3,7-Dihydroxy-8-methoxy-4-oxo-4H1-chromen-2-yl)phenyl)butyl)triphenylphosphonium bromide]
IC50 (U-251): 7.54 µM | IC50 (HCC1806): 2800 nM | IC50 (bile duct PDX): < 10 µM | IC50 (lung carcinoma cell): < 20 µM
